Counter-ions that a name gives are not always drawn. Like-named read-outs stand apart in the source and are kept apart here.
Columns and labels:
Jurkat cells = assay: Measurement of Inhibitory Effect on Leukocyte Functions (adhesion of Jurkat cells to ligand-expressing cells or ligand-immobilized plate); format: cell-based; conditions: Homo sapiens, 0.5 h, read-out: IC50 (concentration at which the number of adherent cells is reduced by 50%)
Description: Jurkat cells, which are the cell line originated from human acute T cell […], were allowed to react with BCECF-AM at 37° C. for 20 minutes to fluorescently label the cells. The fluorescently labelled Jurkat cells were allowed to react with ligand-expressing cells or with a ligand-immobilized plate at 37° C. for 30 minutes. After removing non-adherent cells by washing, 1% NP40 was added thereto to lyse the adherent cells, and fluorescence intensity was measured with Cytofluor 2300 (Millipore). From the obtained fluorescence intensity, the number of adherent cells was calculated. Each test compound was reacted with the Jurkat cells before the beginning of the adhesion reaction. In Table 18, the IC50 of each compound (i.e. the concentration at which the number of adherent cells is reduced by 50%) is shown.

[1] = Pharmacokinetic Evaluation in Rats; format: in vivo; conditions: rat, male SD rats, administered orally or intravenously, 0.5 mg/mL dosing solution, plasma up to 8 hours; for clearance: intravenous, read-out: CLtot (total clearance) (converted); for bioavailability: oral, read-out: BA (bioavailability)
Description: Each compound was dissolved in PBS or PBS containing 10% PEG, thereby preparing 0.5 mg/mL dosing solution. The compound was administered orally or intravenously to male SD rats (7 to 9 weeks old). Blood was collected with time from the tail vein at time points up to 8 hours after the administration, and obtained blood was centrifuged to collect blood plasma. The blood plasma was pretreated by using the solid-phase extraction method, and the concentration of the compound was analyzed with LC/MS/MS (ESI negative mode).
As the Comparative Compound, 2-[4-((3,5-dichlorobenzensulfonylamino)methyl)benzoylamino]-5-(4-(methyl-pyrimidin-2-ylamino)phenyl)pent-4-enoic acid (XXI) described in WO 99/26923 was used.

[2] = system: Mouse Experimental Autoimmune Encephalomyelitis Model; assay: Inhibitory Effect of Compounds Against Mouse Experimental Autoimmune Encephalomyelitis Model; format: in vivo; conditions: orally 50 mg/kg every day from one day before inoculation of PLP139-151; female SJL mouse; scored at Days 11, 12 or 14
Description: This method was carried out in accordance with the literature “Int. Immunol., 9, 1243-1251 (1997)”.
A PBS solution containing 2 mg/mL partial synthetic peptide (PLP139-151) of proteolipid protein was mixed with an equal amount of Freund's complete adjuvant, and the resulting mixture was inoculated intracutaneously into both lateral regions of 7-week-old female SJL mouse (Charles River Laboratories Japan) in a total amount of 0.1 mL (0.05 mL per one side). The compounds described in Example 77, Example 78, Example 80, Example 81, Example 83 and Example 84 were orally administered at a dose of 50 mg/kg every day from one day before the inoculation, and neurological symptoms was scored (0: normal, 1: limp tail or hind limb weakness, 2: limp tail and hind limb weakness, 3: partial hind limb paralysis, 4: complete hind limb paralysis, 5: moribund state) at Days 11, 12 or 14. The scoring was carried out by using the method described in Current Protocols in Immunology (John Wiley & Sons, Inc).

[3] = Jurkat cell adhesion to ligand-expressing cells or ligand-immobilized plate, 37° C., 30 minutes

Structure (SMILES)	IC50 (Jurkat cells)	clearance [1]	bioavailability [1]	rate of reduction of increase in the score of neurological symptoms [2]	IC50 (Jurkat cells; [3])
CC(C)CN(c1ccc(/C=C/CC(NC(=O)c2c(Cl)cccc2Cl)C(=O)O)cc1)c1ncccn1 (stereo not shown) [Example 55, (E)-2-(2,6-Dichlorobenzamido)-5-[4-(isobutyl-pyrimidin-2-ylamino)phenyl]pent-4-enoic acid sodium salt]	0.42 µM				
O=C(NC(C/C=C/c1ccc(N(CC2CC2)c2ncccn2)cc1)C(=O)O)c1c(Cl)cccc1Cl (stereo not shown) [Example 53, (E)-5-[4-(Cyclopropylmethyl-pyrimidin-2-ylamino)phenyl]-2-(2,6-dichlorobenzamido)pent-4-enoic acid sodium salt]	0.12 µM				
COC1(c2ccc(/C=C/C[C@H](NC(=O)c3c(Cl)cccc3Cl)C(=O)[O-])cc2)CCOCC1.[Na+] [Example 78, (S,E)-2-(2,6-Dichlorobenzamido)-5-[4-(4-methoxytetrahydropyran-4-yl)-phenyl]pent-4-enoic acid sodium salt]		16.6 mL/min/kg	26.1%	60%	
CC(C)N(c1ccc(/C=C/C[C@H](NC(=O)c2c(Cl)cccc2Cl)C(=O)[O-])cc1)c1ncccn1.[Na+] [Example 84, (S,E)-2-(2,6-Dichlorobenzamido)-5-[4-(isopropyl-pyrimidin-2-ylamino)phenyl]pent-4-enoic acid sodium salt]		19.6 mL/min/kg	58.5%	67%	
COC1(c2ccc(/C=C/C[C@H](NC(=O)c3c(Cl)cccc3Cl)C(=O)O)cc2)CCOCC1 [Example 77, (S,E)-2-(2,6-Dichlorobenzamido)-5-[4-(4-methoxytetrahydropyran-4-yl)-phenyl]pent-4-enoic acid]		16 mL/min/kg	20%	40%	0.049 µM
CCCCN(c1ccc(/C=C/CC(NC(=O)c2c(Cl)cccc2Cl)C(=O)O)cc1)c1ncccn1 (stereo not shown) [Example 37, (E)-5-(4-Butyl-pyrimidin-2-yl-amino)-phenyl]-2-(2,6-dichlorobenzamido)-pent-4-enoic acid sodium salt]	0.16 µM				
CN(c1ccc(/C=C/C[C@H](NC(=O)c2c(Cl)cccc2Cl)C(=O)O)cc1)c1ncccn1 [Example 80, (S,E)-2-(2,6-Dichlorobenzamido)-5-[4-(methyl-pyrimidin-2-ylamino)phenyl]pent-4-enoic acid]		15.1 mL/min/kg	47.6%	60%	0.095 µM
CC(C)N(c1ccc(/C=C/C[C@H](NC(=O)c2c(Cl)cccc2Cl)C(=O)O)cc1)c1ncccn1 [Example 83, (S,E)-2-(2,6-Dichlorobenzamido)-5-[4-(isopropyl-pyrimidin-2-ylamino)phenyl]pent-4-enoic acid]		18.1 mL/min/kg	40%	70%	0.017 µM
CC(C)=CCN(c1ccc(/C=C/CC(NC(=O)c2c(Cl)cccc2Cl)C(=O)O)cc1)c1ncccn1 (stereo not shown) [Example 51, (E)-2-(2,6-Dichlorobenzamido)-5-[4-((3-methyl-2-butenyl)-pyrimidin-2-ylamino)phenyl]pent-4-enoic acid sodium salt]					0.1 µM
CN(c1ccc(/C=C/C[C@H](NC(=O)c2c(Cl)cccc2Cl)C(=O)[O-])cc1)c1ncccn1.[Na+] [Example 81, (S,E)-2-(2,6-Dichlorobenzamido)-5-[4-(methyl-pyrimidin-2-ylamino)phenyl]pent-4-enoic acid sodium salt]		16.1 mL/min/kg	50.9%	68%	

— patent US7879837B2, “Therapeutic or prophylactic agent for multiple sclerosis” (Toray Industries, Inc., priority 2006, dated 2011)
